Experimental data from ChEMBL document CHEMBL4190351, “Synthesis and biological evaluation of novel 6,11-dihydro-5H-benzo[e]pyrimido- [5,4-b][1,4]diazepine derivatives as potential c-Met inhibitors” (Eur J Med Chem, 2017).

Assays:
[1] = biological target: Hepatocyte growth factor receptor (Homo sapiens, UniProt P08581); test: Inhibition of cMet (unknown origin) using poly(Glu, Tyr)4:1 substrate and ATP incubated fro 60 mins by ELISA
CAKI-1 = test: Cytotoxicity in human Caki1 cells incubated for 72 hrs by sulforhodamine B assay; settings: CAKI-1, 72 h
HepG2 = test: Cytotoxicity in human HepG2 cells incubated for 72 hrs by sulforhodamine B assay; settings: HepG2, 72 h
PC-3 = test: Cytotoxicity in human PC3 cells incubated for 72 hrs by sulforhodamine B assay; settings: PC-3, 72 h
PANC-1 = test: Cytotoxicity in human PANC1 cells incubated for 72 hrs by sulforhodamine B assay; settings: PANC-1, 72 h

Chain of Hepatocyte growth factor receptor (P08581 whole entry): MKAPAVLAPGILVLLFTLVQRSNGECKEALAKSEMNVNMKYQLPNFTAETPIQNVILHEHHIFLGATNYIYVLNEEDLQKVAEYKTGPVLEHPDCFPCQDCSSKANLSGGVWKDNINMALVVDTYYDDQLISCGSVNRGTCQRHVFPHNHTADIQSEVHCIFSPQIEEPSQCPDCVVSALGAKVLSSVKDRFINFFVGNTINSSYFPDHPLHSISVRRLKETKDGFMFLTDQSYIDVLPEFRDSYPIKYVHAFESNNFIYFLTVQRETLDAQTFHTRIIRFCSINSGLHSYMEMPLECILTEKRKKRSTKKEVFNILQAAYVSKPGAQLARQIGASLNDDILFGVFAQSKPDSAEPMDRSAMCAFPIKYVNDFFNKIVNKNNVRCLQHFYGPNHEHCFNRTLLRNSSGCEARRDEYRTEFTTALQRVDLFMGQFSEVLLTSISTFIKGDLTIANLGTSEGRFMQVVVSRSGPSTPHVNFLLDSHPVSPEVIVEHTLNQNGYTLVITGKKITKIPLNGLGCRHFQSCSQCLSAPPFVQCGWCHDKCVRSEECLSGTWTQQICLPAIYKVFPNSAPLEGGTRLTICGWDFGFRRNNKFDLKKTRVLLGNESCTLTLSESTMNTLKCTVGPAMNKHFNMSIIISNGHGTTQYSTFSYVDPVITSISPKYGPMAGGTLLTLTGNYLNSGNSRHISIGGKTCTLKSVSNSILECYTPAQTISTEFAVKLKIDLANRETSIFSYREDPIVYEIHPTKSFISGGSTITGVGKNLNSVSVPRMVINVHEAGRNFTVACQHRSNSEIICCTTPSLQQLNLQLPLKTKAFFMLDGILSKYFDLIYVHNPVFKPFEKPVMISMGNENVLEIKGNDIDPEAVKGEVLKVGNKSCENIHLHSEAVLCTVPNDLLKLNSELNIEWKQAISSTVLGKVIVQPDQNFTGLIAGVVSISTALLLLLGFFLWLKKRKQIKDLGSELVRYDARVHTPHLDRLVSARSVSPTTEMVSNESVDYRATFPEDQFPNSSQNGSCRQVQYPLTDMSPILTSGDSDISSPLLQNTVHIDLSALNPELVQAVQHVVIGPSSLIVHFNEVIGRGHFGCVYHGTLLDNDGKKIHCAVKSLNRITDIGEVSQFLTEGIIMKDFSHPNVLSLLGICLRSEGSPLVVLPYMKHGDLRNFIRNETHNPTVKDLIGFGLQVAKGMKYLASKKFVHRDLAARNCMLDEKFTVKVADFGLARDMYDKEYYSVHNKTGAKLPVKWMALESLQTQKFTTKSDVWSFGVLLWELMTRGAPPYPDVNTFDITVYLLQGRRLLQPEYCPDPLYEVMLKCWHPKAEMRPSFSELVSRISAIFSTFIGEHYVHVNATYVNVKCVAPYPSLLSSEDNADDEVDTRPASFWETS

SMILES | IC50 [1] | also measured
COc1cc2c(cc1OC)Oc1ncnc(Oc3ccc(NC(=O)C4(C(=O)Nc5ccc(F)cc5)CC4)cc3)c1N=C2 | > 1000 nM | –
COc1cc2c(cc1OC)Nc1nccc(Oc3ccc(NC(=O)C4(C(=O)Nc5ccc(F)cc5)CC4)cc3F)c1NC2 | > 1000 nM | –
COc1cc2c(cc1OC)Nc1ncnc(Oc3ccc(NC(=O)C4(C(=O)Nc5ccc(F)cc5)CC4)cc3)c1N(C)C2 | > 1000 nM | –
COc1cc2c(cc1OC)C(=O)Nc1c(ncnc1Oc1ccc(NC(=O)C3(C(=O)Nc4ccc(F)cc4)CC3)cc1F)N2 | > 1000 nM | –
COc1cc2c(cc1OC)Nc1nccc(Oc3ccc(NC(=O)C4(C(=O)Nc5ccc(F)cc5)CC4)cc3F)c1N=C2 | > 1000 nM | –
COc1cc2c(cc1OC)Nc1nccc(Oc3ccc(NC(=O)C4(C(=O)Nc5ccc(F)cc5)CC4)cc3)c1N=C2 | > 1000 nM | –
Cc1nc(Oc2ccc(NC(=O)C3(C(=O)Nc4ccc(F)cc4)CC3)cc2)c2c(n1)Oc1ccccc1CN2 | > 1000 nM | –
COc1cc2c(cc1OC)Nc1ncnc(Oc3ccc(NC(=O)C4(C(=O)Nc5ccc(F)cc5)CC4)cc3F)c1N=C2 | – | IC50 (CAKI-1): 864 nM; IC50 (HepG2): 1340 nM; IC50 (PC-3): 1610 nM; IC50 (PANC-1): 1660 nM
COc1cc2c(cc1OC)Nc1ncnc(Oc3ccc(NC(=O)C4(C(=O)Nc5ccc(F)cc5)CC4)cc3)c1NC2 | – | IC50 (CAKI-1): 1470 nM; IC50 (HepG2): 4910 nM; IC50 (PC-3): 7120 nM; IC50 (PANC-1): 5340 nM
COc1cc2c(cc1OC)Nc1nccc(Oc3ccc(NC(=O)C4(C(=O)Nc5ccc(F)cc5)CC4)cc3)c1NC2 | > 1000 nM | –
